# Reference: ChEMBL document CHEMBL1201862, “PubChem BioAssay data set” (2004)
# Active and inactive are the calls of the source.
# Key:
# [1] = target: T1, E3 ubiquitin-protein ligase XIAP (Homo sapiens, UniProt P98170); assay: Counter Screen using XIAP-Bir3 for Chemical Antagonists of Bir1/2 domains of IAP-family anti-apoptotic proteins. [Related pubchem assays (depositor defined):AID1018, AID1449, AID1514, AID1638, AID1749, AID1750, AID488957, AID488963]
# [2] = target: T1, E3 ubiquitin-protein ligase XIAP; assay: small molecules displacing peptide from XIAP – biochemical, IAP family, fluorescence polarization (AID 1018); format: functional
# [3] = target: Tumor necrosis factor (Homo sapiens, UniProt P01375); assay: analog potency on TNFa NF-kB signaling – cell-based, revised, SAR follow-up (AID 2337); format: functional
# Chain of Tumor necrosis factor (P01375 whole entry, the tested form may be a part): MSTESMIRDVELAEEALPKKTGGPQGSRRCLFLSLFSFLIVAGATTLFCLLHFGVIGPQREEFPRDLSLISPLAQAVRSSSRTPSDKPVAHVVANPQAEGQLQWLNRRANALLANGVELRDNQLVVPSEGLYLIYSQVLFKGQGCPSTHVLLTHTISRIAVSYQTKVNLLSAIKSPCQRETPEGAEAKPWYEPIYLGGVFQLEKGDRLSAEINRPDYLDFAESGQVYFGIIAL
# [4] = target: T2, Nucleotide-binding oligomerization domain-containing protein 1 (Homo sapiens, UniProt Q9Y239); assay: blockers of NOD1 pathway activity – revised, SAR follow-up (AID 2333); format: functional
# T2 sequence (Q9Y239 whole entry): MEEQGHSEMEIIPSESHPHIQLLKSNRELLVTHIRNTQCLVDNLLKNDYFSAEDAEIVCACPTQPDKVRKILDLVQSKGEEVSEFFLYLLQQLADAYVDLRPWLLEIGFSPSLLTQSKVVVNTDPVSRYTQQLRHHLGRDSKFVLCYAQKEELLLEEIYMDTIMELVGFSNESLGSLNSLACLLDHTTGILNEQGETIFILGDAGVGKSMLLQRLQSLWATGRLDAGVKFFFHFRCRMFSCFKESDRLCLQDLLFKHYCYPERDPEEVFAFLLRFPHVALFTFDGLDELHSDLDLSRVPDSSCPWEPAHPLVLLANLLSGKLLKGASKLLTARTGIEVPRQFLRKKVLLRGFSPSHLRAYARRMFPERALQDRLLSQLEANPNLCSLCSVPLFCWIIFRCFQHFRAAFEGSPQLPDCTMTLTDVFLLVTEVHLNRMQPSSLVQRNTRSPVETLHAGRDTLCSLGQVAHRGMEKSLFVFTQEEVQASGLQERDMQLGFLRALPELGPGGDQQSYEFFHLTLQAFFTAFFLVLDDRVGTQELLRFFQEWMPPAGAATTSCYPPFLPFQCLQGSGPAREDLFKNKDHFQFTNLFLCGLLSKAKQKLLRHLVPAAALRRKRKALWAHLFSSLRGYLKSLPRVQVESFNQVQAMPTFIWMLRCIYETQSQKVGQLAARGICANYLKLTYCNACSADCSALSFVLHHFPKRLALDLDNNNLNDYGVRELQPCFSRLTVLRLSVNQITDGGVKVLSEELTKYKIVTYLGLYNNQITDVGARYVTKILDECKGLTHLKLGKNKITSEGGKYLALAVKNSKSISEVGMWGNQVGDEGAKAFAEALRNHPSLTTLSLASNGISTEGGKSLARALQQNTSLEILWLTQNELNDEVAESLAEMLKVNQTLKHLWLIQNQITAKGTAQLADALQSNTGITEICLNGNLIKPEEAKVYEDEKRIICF
# [5] = target: Nucleotide-binding oligomerization domain-containing protein 2 (Homo sapiens, UniProt Q9HC29); assay: PubChem AID 2334; format: functional
# Chain of Nucleotide-binding oligomerization domain-containing protein 2 (Q9HC29 whole entry, the tested form may be a part): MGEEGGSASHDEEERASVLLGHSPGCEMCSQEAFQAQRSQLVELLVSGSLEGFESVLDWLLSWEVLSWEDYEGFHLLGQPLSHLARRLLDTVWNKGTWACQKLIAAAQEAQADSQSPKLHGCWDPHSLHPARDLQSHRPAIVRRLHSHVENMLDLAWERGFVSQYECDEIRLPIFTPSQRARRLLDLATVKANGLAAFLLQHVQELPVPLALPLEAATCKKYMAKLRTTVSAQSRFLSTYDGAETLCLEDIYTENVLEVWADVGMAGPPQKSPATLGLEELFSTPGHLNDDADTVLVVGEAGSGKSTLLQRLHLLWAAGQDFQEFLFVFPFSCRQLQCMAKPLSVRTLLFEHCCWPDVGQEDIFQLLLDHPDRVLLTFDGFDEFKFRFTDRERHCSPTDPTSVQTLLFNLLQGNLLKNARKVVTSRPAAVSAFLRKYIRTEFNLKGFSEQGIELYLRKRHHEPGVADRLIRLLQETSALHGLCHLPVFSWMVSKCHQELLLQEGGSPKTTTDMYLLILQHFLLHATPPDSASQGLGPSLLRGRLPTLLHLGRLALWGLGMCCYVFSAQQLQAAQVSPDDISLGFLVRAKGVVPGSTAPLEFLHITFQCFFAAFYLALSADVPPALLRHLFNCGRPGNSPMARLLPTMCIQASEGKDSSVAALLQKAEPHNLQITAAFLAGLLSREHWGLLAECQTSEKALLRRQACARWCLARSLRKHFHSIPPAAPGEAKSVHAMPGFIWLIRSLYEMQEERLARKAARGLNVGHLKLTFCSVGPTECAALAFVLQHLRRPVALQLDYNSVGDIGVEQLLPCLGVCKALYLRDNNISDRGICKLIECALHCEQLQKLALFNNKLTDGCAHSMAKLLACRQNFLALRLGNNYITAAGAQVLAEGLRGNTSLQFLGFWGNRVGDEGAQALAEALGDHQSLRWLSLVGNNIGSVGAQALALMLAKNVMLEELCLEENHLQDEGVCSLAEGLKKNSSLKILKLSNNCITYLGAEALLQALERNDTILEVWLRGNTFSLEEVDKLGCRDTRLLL
# [6] = test system: HEK293; assay: cells; settings: Homo sapiens;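 note: cells exposed to compound for 14 hours overnight before viability readout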
# [7] = target: DNA dC->dU-editing enzyme APOBEC-3A (Homo sapiens, UniProt P31941); assay: A3A deaminase inhibition for selectivity – biochemical, dose response (AID 504722); format: functional
# Chain of DNA dC->dU-editing enzyme APOBEC-3A (P31941 whole entry): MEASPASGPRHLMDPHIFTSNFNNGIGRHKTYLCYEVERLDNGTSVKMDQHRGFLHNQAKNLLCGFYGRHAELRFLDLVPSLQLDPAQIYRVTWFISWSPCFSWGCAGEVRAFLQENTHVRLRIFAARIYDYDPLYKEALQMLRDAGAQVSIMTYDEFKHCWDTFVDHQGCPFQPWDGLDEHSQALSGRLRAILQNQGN
# [8] = target: DNA dC->dU-editing enzyme APOBEC-3G (Homo sapiens, UniProt Q9HC16); assay: Dose Response confirmation of small molecule APOBEC3G DNA Deaminase Inhibitors via a fluorescence-based single-stranded DNA deaminase assay. [Related pubchem assays (depositor defined):AID493012, AID493028]; format: functional
# Chain of DNA dC->dU-editing enzyme APOBEC-3G (Q9HC16 whole entry): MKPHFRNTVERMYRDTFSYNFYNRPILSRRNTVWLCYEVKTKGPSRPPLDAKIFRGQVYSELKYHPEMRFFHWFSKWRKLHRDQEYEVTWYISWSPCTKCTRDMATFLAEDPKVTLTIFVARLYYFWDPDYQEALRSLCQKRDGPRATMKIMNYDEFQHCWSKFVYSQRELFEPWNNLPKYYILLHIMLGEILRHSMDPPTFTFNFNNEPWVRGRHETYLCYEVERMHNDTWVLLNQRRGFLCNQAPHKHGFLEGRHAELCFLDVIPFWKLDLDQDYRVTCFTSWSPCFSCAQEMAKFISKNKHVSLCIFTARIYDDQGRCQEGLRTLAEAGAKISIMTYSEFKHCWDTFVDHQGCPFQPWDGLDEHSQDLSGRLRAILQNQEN
# [9] = target: Cytochrome P450 2C19 (Homo sapiens, UniProt P33261); assay: Cytochrome panel assay with activity outcomes. Panel member name: p450-cyp2c19 Compounds with AC50 equal or less than 10 uM are considered active; format: functional; settings: read-out: AC50
# Chain of Cytochrome P450 2C19 (P33261 whole entry): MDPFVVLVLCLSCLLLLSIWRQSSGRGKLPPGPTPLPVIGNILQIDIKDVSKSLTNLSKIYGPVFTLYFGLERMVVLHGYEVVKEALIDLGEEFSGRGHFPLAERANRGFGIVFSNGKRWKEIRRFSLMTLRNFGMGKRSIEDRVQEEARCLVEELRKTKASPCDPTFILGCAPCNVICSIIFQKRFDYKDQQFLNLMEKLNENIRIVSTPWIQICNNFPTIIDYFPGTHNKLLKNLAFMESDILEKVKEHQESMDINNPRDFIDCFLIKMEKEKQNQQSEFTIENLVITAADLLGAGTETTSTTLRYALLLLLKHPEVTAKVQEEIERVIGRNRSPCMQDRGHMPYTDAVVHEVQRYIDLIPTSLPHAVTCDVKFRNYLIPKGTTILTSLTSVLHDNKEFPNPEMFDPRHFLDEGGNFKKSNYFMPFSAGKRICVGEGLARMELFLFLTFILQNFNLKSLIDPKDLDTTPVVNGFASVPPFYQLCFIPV
# [10] = target: T3, DNA repair and recombination protein RAD54-like (Homo sapiens, UniProt Q92698); assay: RAD54 Holliday junction migration blockers – biochemical, fluorescence, cherry-picked samples, dose series, confirmation (AID 651657); format: functional
# T3 sequence (Q92698 whole entry): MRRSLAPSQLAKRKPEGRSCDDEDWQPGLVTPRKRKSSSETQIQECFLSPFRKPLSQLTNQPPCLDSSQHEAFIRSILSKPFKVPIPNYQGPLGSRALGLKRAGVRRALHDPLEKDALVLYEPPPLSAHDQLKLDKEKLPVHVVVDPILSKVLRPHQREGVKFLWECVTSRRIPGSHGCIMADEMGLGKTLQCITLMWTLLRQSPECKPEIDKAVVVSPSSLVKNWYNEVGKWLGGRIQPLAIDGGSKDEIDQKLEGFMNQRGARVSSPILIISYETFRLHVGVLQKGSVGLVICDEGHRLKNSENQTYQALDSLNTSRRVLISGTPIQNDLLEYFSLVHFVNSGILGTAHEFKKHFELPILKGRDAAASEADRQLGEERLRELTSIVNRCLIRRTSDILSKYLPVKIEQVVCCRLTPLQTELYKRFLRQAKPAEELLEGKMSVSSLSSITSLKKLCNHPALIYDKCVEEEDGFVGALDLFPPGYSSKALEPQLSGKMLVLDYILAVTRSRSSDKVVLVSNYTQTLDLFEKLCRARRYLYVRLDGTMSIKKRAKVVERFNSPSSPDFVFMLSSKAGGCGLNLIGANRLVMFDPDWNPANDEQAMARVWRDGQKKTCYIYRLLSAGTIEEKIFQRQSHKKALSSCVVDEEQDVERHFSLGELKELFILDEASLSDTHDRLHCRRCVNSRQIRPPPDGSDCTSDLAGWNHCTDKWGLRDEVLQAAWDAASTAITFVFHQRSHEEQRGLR
# [11] = target: T4, Cytochrome P450 2C9 (Homo sapiens, UniProt P11712)
# T4 sequence (P11712 whole entry): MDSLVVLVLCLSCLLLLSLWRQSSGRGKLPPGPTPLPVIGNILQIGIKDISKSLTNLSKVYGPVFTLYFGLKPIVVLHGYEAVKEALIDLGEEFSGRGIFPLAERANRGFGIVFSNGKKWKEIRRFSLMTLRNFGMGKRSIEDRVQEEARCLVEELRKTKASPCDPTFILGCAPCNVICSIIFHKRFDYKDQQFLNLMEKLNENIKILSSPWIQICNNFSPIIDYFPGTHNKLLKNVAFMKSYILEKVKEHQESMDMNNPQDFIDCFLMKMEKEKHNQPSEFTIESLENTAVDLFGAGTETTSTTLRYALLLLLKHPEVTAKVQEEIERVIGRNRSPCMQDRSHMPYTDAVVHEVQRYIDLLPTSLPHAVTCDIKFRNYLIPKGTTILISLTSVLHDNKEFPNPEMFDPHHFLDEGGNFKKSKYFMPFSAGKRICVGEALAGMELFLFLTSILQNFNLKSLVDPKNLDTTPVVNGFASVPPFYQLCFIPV
# [12] = target: Cytochrome P450 2D6 (Homo sapiens, UniProt P10635);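 note: CYP2D6 member of a cytochrome P450 panel assay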
# Chain of Cytochrome P450 2D6 (P10635 whole entry): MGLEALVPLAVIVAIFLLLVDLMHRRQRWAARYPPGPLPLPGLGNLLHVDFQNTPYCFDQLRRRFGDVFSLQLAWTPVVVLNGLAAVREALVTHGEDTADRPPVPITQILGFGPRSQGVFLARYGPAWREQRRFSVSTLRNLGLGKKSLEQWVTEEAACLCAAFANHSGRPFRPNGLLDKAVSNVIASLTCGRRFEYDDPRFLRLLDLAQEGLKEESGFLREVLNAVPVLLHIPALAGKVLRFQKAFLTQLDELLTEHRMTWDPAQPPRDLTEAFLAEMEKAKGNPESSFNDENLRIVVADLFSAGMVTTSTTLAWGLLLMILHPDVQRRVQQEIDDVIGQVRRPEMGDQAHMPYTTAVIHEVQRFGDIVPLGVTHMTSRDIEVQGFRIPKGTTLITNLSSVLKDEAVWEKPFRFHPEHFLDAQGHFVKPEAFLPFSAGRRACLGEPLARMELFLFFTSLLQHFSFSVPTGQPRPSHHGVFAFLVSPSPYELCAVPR
# [13] = target: Cytochrome P450 3A4 (Homo sapiens, UniProt P08684);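 note: CYP3A4 tested as one member of a cytochrome P450 panel screen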
# Chain of Cytochrome P450 3A4 (P08684 whole entry): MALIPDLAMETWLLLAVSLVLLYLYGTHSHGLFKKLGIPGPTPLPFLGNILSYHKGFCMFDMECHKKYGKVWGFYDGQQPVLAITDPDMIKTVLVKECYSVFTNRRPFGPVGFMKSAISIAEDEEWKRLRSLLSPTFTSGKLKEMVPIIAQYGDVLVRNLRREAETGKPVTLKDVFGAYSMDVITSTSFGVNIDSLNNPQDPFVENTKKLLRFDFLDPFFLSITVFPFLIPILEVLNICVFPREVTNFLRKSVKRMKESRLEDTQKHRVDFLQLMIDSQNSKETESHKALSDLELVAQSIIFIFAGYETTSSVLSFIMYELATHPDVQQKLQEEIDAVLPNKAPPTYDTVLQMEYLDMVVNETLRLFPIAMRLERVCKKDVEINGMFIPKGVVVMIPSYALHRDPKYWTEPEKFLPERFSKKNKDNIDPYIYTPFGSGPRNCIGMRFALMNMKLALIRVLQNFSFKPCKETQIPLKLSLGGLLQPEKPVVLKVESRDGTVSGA
# [14] = THP-1 cell cytotoxicity, dose response, cytotoxicity control for non-replicating M. tuberculosis project (AID 489025); format: functional
# [15] = Vero E6 cell cytotoxicity, dose response, cytotoxicity control for non-replicating M. tuberculosis project, secondary assay (AID 492998); format: functional, VeroE6; settings: Vero C1008
# [16] = cells; format: functional
# [17] = target: SUMO-activating enzyme (Homo sapiens, UniProt Q9UBT2); assay: blockers of UBC9-mediated SUMO conjugation – biochemical, AlphaScreen, SUMOylation inhibitor project, confirmation (AID 2018); format: functional
# [18] = test system: Streptococcus sp. 'group A'; assay: Streptococcus pyogenes SK(-)GAS viability under kanamycin – luminescence, BacTiterGlo, confirmation, counter-screen for streptokinase expression inhibitor project, dose response (AID 1900); format: functional, organism-based
# [19] = target: Large T antigen (Simian virus 40, UniProt P03070); format: functional, Betapolyomavirus macacae;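 note: Confirmatory-stage PubChem screen for compounds that inhibit SV40 T antigen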
# [20] = test system: Streptococcus; assay: GAS UMAA2166 growth inhibition – luminescence, BacTiterGlo, counter-screen for streptokinase expression inhibitor project, dose response (AID 1915); format: functional, organism-based;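 note: potency for reduction of bacterial viability or growth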
# [21] = target: T5, Hexokinase HKDC1 (Homo sapiens, UniProt Q2TB90); assay: inhibition of HKDC1 glucose phosphorylation – biochemical, W721R variant, dose response (AID 504729); format: functional
# T5 sequence (Q2TB90 whole entry): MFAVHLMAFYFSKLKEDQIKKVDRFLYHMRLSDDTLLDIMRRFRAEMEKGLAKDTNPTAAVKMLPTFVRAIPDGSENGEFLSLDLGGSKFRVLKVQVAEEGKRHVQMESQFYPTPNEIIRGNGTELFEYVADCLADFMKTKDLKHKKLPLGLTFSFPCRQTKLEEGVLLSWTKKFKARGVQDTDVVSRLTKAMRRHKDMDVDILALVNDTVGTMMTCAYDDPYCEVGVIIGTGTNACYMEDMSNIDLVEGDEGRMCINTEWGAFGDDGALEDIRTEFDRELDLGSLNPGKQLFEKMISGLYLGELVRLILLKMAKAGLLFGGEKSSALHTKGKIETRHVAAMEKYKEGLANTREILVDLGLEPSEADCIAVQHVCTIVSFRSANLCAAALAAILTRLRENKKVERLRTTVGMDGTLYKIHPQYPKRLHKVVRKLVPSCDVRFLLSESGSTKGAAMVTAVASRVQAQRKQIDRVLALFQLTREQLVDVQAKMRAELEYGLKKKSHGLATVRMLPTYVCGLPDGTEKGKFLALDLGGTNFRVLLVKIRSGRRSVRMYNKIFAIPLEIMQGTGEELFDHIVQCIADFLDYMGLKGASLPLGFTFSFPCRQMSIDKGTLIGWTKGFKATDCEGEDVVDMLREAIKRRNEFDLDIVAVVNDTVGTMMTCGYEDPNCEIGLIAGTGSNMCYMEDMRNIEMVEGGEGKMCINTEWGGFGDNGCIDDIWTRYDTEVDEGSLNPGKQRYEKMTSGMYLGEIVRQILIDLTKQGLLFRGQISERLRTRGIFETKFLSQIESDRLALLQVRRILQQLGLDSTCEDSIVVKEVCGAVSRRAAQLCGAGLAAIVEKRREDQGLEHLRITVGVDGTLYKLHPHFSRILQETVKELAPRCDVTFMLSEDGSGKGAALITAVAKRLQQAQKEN
# [22] = target: T6, fMet-Leu-Phe receptor (Homo sapiens, UniProt P21462); assay: formyl peptide receptor binders – dose response (AID 519); format: functional
# T6 sequence (P21462 whole entry): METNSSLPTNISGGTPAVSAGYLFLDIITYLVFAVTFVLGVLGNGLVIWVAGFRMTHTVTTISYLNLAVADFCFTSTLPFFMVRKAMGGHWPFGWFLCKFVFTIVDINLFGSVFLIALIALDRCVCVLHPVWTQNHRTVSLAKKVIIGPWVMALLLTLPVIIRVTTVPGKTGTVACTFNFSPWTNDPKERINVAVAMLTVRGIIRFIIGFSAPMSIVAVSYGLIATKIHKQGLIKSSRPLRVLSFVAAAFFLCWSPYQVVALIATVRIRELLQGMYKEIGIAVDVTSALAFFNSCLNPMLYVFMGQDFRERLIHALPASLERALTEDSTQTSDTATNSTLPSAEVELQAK
# [23] = target: T7, Cytochrome P450 1A2 (Homo sapiens, UniProt P05177);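 note: PubChem cytochrome P450 panel assay, CYP1A2 panel member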
# T7 sequence (P05177 whole entry): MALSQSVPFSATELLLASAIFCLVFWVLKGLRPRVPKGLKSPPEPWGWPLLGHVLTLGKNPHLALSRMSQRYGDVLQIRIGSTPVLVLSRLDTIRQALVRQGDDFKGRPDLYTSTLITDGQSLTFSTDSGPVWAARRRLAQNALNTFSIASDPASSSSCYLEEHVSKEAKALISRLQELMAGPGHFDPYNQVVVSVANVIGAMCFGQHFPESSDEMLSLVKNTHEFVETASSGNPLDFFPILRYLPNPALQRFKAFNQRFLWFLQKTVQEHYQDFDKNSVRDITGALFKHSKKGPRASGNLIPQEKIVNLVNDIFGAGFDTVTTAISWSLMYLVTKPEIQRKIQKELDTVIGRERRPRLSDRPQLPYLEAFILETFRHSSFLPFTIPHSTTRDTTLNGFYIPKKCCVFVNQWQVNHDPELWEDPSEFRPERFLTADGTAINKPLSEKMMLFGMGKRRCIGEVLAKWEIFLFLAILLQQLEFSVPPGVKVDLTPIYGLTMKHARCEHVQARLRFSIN
# [24] = target: T4, Cytochrome P450 2C9; remark: listed apart in the source
# T1 sequence (P98170 whole entry): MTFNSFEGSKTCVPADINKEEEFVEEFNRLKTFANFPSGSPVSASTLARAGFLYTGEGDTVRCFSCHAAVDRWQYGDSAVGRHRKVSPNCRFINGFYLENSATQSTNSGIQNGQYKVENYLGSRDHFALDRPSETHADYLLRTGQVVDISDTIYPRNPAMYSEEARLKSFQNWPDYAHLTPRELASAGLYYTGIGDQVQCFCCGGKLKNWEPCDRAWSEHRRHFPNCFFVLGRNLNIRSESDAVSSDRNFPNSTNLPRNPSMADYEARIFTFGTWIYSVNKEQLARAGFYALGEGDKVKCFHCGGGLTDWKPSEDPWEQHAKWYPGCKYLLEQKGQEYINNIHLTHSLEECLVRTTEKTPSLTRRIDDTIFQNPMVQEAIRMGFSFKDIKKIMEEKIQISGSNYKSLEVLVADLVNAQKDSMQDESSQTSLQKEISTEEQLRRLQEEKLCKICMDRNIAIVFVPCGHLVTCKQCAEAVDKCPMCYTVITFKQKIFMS
structure (smiles),measurement,setting,value
COCCn1nnnc1C(C(C)C)N(Cc1ccccc1)Cc1cc2cc(OC)ccc2nc1O (stereo not drawn),IC50,[1],> 100 µM (inactive)
same,IC50,[2],> 100 µM (not active)
CC(/C=C/c1ccccc1)=NNC(=O)c1cccc(Br)c1,IC50,[3],> 20 µM (inactive)
same,IC50,[4],> 20 µM (inactive)
same,IC50,[5],> 20 µM (inactive)
same,IC50,[6],> 20 µM (inactive)
CC(=O)N1CC[n+]2c(-c3ccc([N+](=O)[O-])cc3)csc21,IC50,[7],> 100 µM (inactive)
same,IC50,[8],13.3 µM (active)
CCN1CCc2c(sc(NC(=O)c3ccc(S(=O)(=O)N4CCOCC4)cc3)c2C(=O)OC)C1.Cl,AC50,[9],31.6 µM (inconclusive)
same,AC50,[10],12.8 µM (active)
same,AC50,[11],5.01 µM (inconclusive)
same,AC50,[12],inconclusive
same,AC50,[13],inconclusive
COc1ccc(NC(=O)CCCN2C(=O)/C(=C\c3ccco3)SC2=S)cc1,IC50,[1],> 25 µM (inactive)
same,IC50,[2],> 100 µM (not active)
same,CC50,[14],> 40 µM (active)
same,CC50,[15],16 µM (active)
same,IC50,[16],23.4 µM (active)
CC(C)(/N=N\C(C)(C)C(=N)N)C(=N)N.Cl,AC50,[12],inconclusive
O=C1N/C(=N\c2ccc3ccccc3c2)S/C1=C/c1ccco1,IC50,[17],14 µM (active)
CC(=O)Nc1nc2ccccc2n1Cc1ccccc1,IC50,[3],> 20 µM (inactive)
same,IC50,[4],> 20 µM (inactive)
same,IC50,[5],> 20 µM (inactive)
same,AC50,[11],35.5 µM (inconclusive)
same,IC50,[6],> 20 µM (inactive)
CCCCNC(=O)c1sc(=S)n2c1[nH]c(=O)c1ccccc12,EC50,[18],11.2 µM (active)
same,IC50,[19],79.6 µM (active)
same,EC50,[20],13.1 µM (active)
same,IC50,[21],18.8 µM (active)
same,Ki,[22],19.6 µM (inactive)
CCCc1nc2oc3c(NCCOCCO)ncnc3c2c2c1COC(C)(C)C2,IC50,[21],12.4 µM (active)
Cc1scc(C(=O)NN=C(S)NCC2CCCO2)c1C (stereo not drawn),AC50,[9],6.31 µM (inconclusive)
same,AC50,[23],11.2 µM (inconclusive)
same,AC50,[12],inconclusive
same,AC50,[24],inconclusive
Cn1cccc1/C=N/n1c(S)nnc1-c1ccccc1,IC50,[7],> 100 µM (inactive)
same,IC50,[8],1.78 µM (active)
COc1ccccc1/C=C/C=N/n1c(S)nnc1-c1ccccn1,IC50,[7],> 100 µM (inactive)
same,IC50,[8],2.67 µM (active)
Cc1nonc1C(=O)NN=Cc1ccc([N+](=O)[O-])o1,IC50,[3],> 20 µM (inactive)
same,IC50,[4],16.4 µM (active)
same,IC50,[5],19.7 µM (active)
same,IC50,[6],> 20 µM (inactive)
